Biological target: isomerase (Mus musculus (Mouse), UniProt Q91ZQ5)
Test: In vivo murine isomerase assay (recovery of 11-cis-retinal after photobleaching)
Design: species or system CD-1 (albino) male mice
Details: for inhibition at 10 mg/kg / inhibition at 5 mg/kg / inhibition at 1 mg/kg / ED50: mouse; for inhibition at 10 mg/kg / inhibition at 5 mg/kg / inhibition at 1 mg/kg: po, negative numbers leveled to 0%; for inhibition at 10 mg/kg: 10 mg/kg oral gavage; for inhibition at 5 mg/kg: 5 mg/kg oral gavage; for inhibition at 1 mg/kg: 1 mg/Kg oral gavage; for ED50: estimated, oral gavage, read-out: ED50 (dose of compound that gives 50% inhibition of 11-cis retinal (oxime) recovery)
Protocol: The capability of styrenyl derivatives to inhibit isomerase is determined by an in vivo murine isomerase assay. Brief exposure of the eye to intense light (“photobleaching” of the visual pigment or simply “bleaching”) is known to photo-isomerize almost all 11-cis-retinal in the retina. The recovery of 11-cis-retinal after bleaching can be used to estimate the activity of isomerase in vivo. Procedures were performed essentially as described by Golczak et al., Proc. Natl. Acad. Sci. USA 102:8162-67 (2005). See also Deigner et al., Science, 244: 968-71 (1989); Gollapalli et al., Biochim Biophys Acta. 1651: 93-101 (2003); Parish, et al., Proc. Natl. Acad. Sci. USA, 14609-13 (1998); Radu, et al., Proc Natl Acad Sci USA 101: 5928-33 (2004). […] Mice were gavaged with styrenyl derivative compounds, Compound 1 or Compound 25. Compound B was included as a positive control, and Compound A with low activity was also included. After 1-72 hours in the dark, the mice were exposed to photobleaching of 3,000 lux of white light for 10 minutes. The mice were allowed to recover 2 hours in the dark. The animals were then sacrificed by carbon dioxide inhalation. Retinoids were extracted from the eye and the regeneration of 11-cis-retinal was assessed at various time intervals. All steps were performed in darkness with minimal redlight illumination (low light darkroom lights and […] flashlights for spot illumination as needed) (see, e.g., Maeda et al., J. Neurochem 85:944-956, 2003; Van Hooser et al., J Biol Chem 277:19173-82, 2002). After the mice were sacrificed, the eyes were immediately removed and placed in liquid nitrogen. The eyes were then homogenized in a glass/glass homogenizer (Kontes Glass Co., homogenizer & pestle 21) containing 1 ml retinoid analysis buffer (50 mM MOPS, 10 mM NH2OH, 50% EtOH, pH 7.0 (stock buffer was stored in absence of ethanol)). The eyes were homogenized until no visible tissue remained (approximately 3 minutes). The samples were incubated 20 minutes at room temperature (including homogenizing) and then placed on ice. One ml cold EtOH was added to the homogenate to rinse the pestle, and the homogenate mixture was transferred to 7 ml glass screwtop tubes on ice. The homogenizer was rinsed with 7 ml hexane, which was added to the 7 ml tubes on ice. The homogenate was mixed by vortexing at high speed for 1 minute. The phases were separated by centrifugation (5 minutes at 4000 rpm, 4° C.). The upper phase was collected and transferred to a clean glass test tube, taking care to avoid disturbing the interface by leaving approximately 0.2 ml of upper phase in the tube. The tubes with the collected upper phase were placed in a heating block at 25° C. and dried under a stream of Argon ( 30 minutes). The lower phase was again extracted by adding 4 ml hexane, vortexing, and separating the phases by centrifugation. The upper phase was collected as described above and pooled into the drying tubes. The dried samples were solubilized in 300 μl Hexane (Fisher Optima grade) and vortexed lightly. The samples were transferred to clean 300 μl glass inserts in HPLC vials using glass pipette and the vials were crimped shut tightly. […] Part #235341). […] The area under the curve for 11-cis retinal oxime was calculated by Agilent Chemstation software and was recorded manually. Data processing was performed using Prizm software. Positive control mice (no compound administered) were sacrificed fully dark-adapted and the eye retinoids analyzed. Light (bleached) control mice (no compound administered) were sacrificed and retinoids isolated and analyzed immediately after light treatment.

Chain of isomerase (Q91ZQ5 whole entry): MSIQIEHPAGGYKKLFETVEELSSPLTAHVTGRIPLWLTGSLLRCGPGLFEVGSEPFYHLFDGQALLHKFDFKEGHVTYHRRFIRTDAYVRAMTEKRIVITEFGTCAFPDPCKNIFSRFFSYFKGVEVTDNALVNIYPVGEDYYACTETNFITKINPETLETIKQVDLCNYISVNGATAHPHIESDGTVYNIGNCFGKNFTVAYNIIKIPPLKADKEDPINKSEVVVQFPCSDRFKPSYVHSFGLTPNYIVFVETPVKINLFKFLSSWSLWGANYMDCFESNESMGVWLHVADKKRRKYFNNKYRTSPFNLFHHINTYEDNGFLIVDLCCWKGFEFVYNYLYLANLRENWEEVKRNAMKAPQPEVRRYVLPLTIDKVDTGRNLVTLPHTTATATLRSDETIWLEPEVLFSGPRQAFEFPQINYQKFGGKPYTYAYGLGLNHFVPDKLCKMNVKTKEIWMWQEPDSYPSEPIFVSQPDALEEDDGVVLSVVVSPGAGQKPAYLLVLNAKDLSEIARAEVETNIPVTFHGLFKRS

| inhibition at 10 mg/kg (4 h) | inhibition at 5 mg/kg (4 h) | inhibition at 5 mg/kg (24 h) | inhibition at 1 mg/kg (6 h) | inhibition at 1 mg/kg (24 h) | Compound | further results |
| --- | --- | --- | --- | --- | --- | --- |
| 76% | – | – | – | – | COc1ccccc1C=Cc1cccc(CCCN)c1 (mixture of isomers) [Example 41] | – |
| – | 24% | 0% | – | – | CC(C)(O)/C=C/c1cccc(CCCN)c1 [Example 79, (E)-4-(3-(3-aminopropyl)phenyl)-2-methylbut-3-en-2-ol] | – |
| 2% | – | – | – | – | Cc1cc(C)cc(C=Cc2cccc(CCCN)c2)c1 (mixture of isomers) [Example 40, (E/Z)-4-(3-(3,5-dimethylstyryl)phenyl)propan-1-amine] | – |
| 16% | – | – | – | – | CCCCC/C=C/c1cccc(CCCN)c1 [Example 24, (E)-3-(3-(hept-1-enyl)phenyl)propan-1-amine] | – |
| 0% | – | – | – | – | NCCCc1cccc(/C=C/C2CCCCC2)c1 [Example 22, (E)-3-(3-(2-cyclohexylvinyl)phenyl)propan-1-amine] | – |
| – | 97% | 3% | – | 0% | CCCC(O)(/C=C/c1cccc(CCCN)c1)CCC [Example 83, (E)-4-(3-(3-aminopropyl)styryl)heptan-4-ol] | inhibition at 1 mg/kg (4 h): 55% |
| 52% | – | – | – | – | CCc1cccc(C)c1C=Cc1cccc(CCCN)c1 (mixture of isomers) [Example 32, (E/Z)-3-(3-(2-ethyl-6-methylstyryl)phenyl)propan-1-amine] | – |
| 0% | – | – | – | – | CCC/C=C/c1cccc(CCCN)c1 [Example 23, (E)-3-(3-(pent-1-enyl)phenyl)propan-1-amine] | – |
| 80% | 57% | 58% | 0% | 0% | Cc1cccc(C)c1/C=C/c1cccc(CCCN)c1 [Example 1, (E)-3-(3-(2,6-dimethylstyryl)phenyl)propan-1-amine] | time of maximum inhibitory effect after gavage (isomerase inhibitory activity over time, mice, FIG. 1): ~6 h; inhibition at 1 mg/kg (2 h): 0%; ED50 (mice): 4.3 mg/kg |

Continued, molecule first:

| Compound | inhibition at 10 mg/kg (4 h) | inhibition at 5 mg/kg (4 h) | inhibition at 5 mg/kg (24 h) | inhibition at 1 mg/kg (6 h) | inhibition at 1 mg/kg (24 h) | further results |
| --- | --- | --- | --- | --- | --- | --- |
| CC1=C(/C=C/c2cccc(C(C)CCN)c2)C(C)(C)CCC1 (stereo not shown) [Example 27, (E)-3-(3-(2-(2,6,6-trimethylcyclohex-1-enyl)vinyl)phenyl)butan-1-amine] | 11% | – | – | – | – | – |
| NCCC(O)c1cccc(/C=C/C2(O)CCCCC2)c1 (stereo not shown) [Example 111, (E)-1-(3-(3-amino-1-hydroxypropyl)styryl)cyclohexanol] | – | 90% | 0% | – | – | – |
| CC1=C(/C=C/c2cccc(C#CCN)c2)C(C)(C)CCC1 [Example 68, (E)-3-(3-(2-(2,6,6-trimethylcyclohex-1-enyl)vinyl)phenyl)prop-2-yn-1-amine] | 75% | – | – | – | – | – |
| CC1=C(/C=C/c2cccc(C(F)CCN)c2)C(C)(C)CCC1 (stereo not shown) [Example 55, (E)-3-fluoro-3-(3-(2-(2,6,6-trimethylcyclohex-1-enyl)vinyl)phenyl)propan-1-amine] | – | 75% | 89% | – | – | inhibition at 1 mg/kg (2 h): 0% |
| CC1=C(/C=C/c2cccc(C(N)CCN)c2)C(C)(C)CCC1 (stereo not shown) [Example 61, (E)-1-(3-(2-(2,6,6-trimethylcyclohex-1-enyl)vinyl)phenyl)propane-1,3-diamine] | – | 12% | 0% | 0% | – | inhibition at 1 mg/kg (4 h): 0% |
| NC[C@@H](O)Cc1cccc(/C=C/c2c(Cl)cccc2Cl)c1 [Example 75, (S,E)-1-amino-3-(3-(2,6-dichlorostyryl)phenyl)propan-2-ol] | – | – | 85% | 20% | 13% | inhibition at 1 mg/kg (2 h): 19%; inhibition at 5 mg/kg (2 h): 81%; inhibition at 5 mg/kg (6 h): 90% |
| CC1=C(/C=C/c2cccc(CC(C)CN)c2)C(C)(C)CCC1 (stereo not shown) [Example 26, (E)-2-methyl-3-(3-(2-(2,6,6-trimethylcyclohex-1-enyl)vinyl)phenyl)propan-1-amine] | 80% | – | – | – | – | – |
| CC1=C(/C=C/c2cccc(C(O)C(C)CN)c2)C(C)(C)CCC1 (stereo not drawn) [Example 59, (E)-(syn/anti)-3-amino-2-methyl-1-(3-(2-(2,6,6-trimethylcyclohex-1-enyl)vinyl)phenyl)propan-1-ol] | – | 21% | 7% | 1% | – | inhibition at 1 mg/kg (4 h): 0% |
| NC[C@H](O)Cc1cccc(/C=C/c2c(Cl)cccc2Cl)c1 [Example 74, (R,E)-1-amino-3-(3-(2,6-dichlorostyryl)phenyl)propan-2-ol] | – | – | 56% | 40% | 9% | inhibition at 1 mg/kg (2 h): 19%; inhibition at 5 mg/kg (2 h): 83%; inhibition at 5 mg/kg (6 h): 91% |
| CC1=C(/C=C/c2cccc(OCCN)c2)C(C)(C)CCC1 [Example 31, (E)-2-(3-(2-(2,6,6-trimethylcyclohex-1-enyl)vinyl)phenoxy)ethanamine] | – | 53% | 46% | 2% | 0% | inhibition at 1 mg/kg (2 h): 0% |
| CC1=C(/C=C/c2cccc(C(=O)CCN)c2)C(C)(C)CCC1 [Example 56, (E)-3-amino-1-(3-(2-(2,6,6-trimethylcyclohex-1-enyl)vinyl)phenyl)propan-1-one] | – | – | – | 75% | 77% | inhibition at 1 mg/kg (2 h): 26% |
| CC1=C(/C=C/c2cccc(C(O)CCN)c2)C(C)(C)CCC1 (stereo not shown) [Compound 25, (E)-3-amino-1-(3-(2-(2,6,6-trimethylcyclohex-1-enyl)vinyl)phenyl)propan-1-ol] | 100% | – | – | – | 96% | inhibition at 1 mg/kg (4 h): 89%; ED50 (mice): 0.44 mg/kg |
| CC1=C(/C=C/c2cccc(CCCN)c2)C(C)(C)CCC1 [Example 21, (E)-3-(3-(2-(2,6,6-trimethylcyclohex-1-enyl)vinyl)phenyl)propan-1-amine] | 80% | – | – | – | – | – |
| CNCCCc1cccc(/C=C/c2c(C)cccc2C)c1 [Example 7, (E)-3-(3-(2,6-dimethylstyryl)phenyl)-N-methylpropan-1-amine] | 36% | – | – | – | – | inhibition at 10 mg/kg (24 h): 8% |
| NCCCc1cccc(/C=C/c2c(Cl)cccc2Cl)c1 [Example 43, (E)-3-(3-(2,6-dichlorostyryl)phenyl)propan-1-amine] | 94% | 79% | 54% | 7% | 16% | inhibition at 1 mg/kg (2 h): 0% |
| NCCCc1cccc(/C=C/c2c(C(F)(F)F)cccc2C(F)(F)F)c1 [Example 49, (E)-3-(3-(2,6-bis(trifluoromethyl)styryl)phenyl)propan-1-amine] | – | 60% | 84% | – | 0% | inhibition at 1 mg/kg (4 h): 10% |

— patent US10201545B2, “Styrenyl derivative compounds for treating ophthalmic diseases and disorders” (Acucela Inc., priority 2007, dated 2019)
